Measured values: ChEMBL document CHEMBL1130938, “L-tryptophan urea amides as NK1/NK2 dual antagonists” (Bioorg Med Chem Lett, 1998)

What was measured:
Type in all cases: cell-based
Substance-K receptor = target: T1, Substance-K receptor (Homo sapiens, UniProt P21452); experiment: Inhibition of cloned human NK2 (Neurokinin 2) receptor, stably expressed in chinese hamster ovary (CHO) cells was determined
T1 sequence (P21452 whole entry): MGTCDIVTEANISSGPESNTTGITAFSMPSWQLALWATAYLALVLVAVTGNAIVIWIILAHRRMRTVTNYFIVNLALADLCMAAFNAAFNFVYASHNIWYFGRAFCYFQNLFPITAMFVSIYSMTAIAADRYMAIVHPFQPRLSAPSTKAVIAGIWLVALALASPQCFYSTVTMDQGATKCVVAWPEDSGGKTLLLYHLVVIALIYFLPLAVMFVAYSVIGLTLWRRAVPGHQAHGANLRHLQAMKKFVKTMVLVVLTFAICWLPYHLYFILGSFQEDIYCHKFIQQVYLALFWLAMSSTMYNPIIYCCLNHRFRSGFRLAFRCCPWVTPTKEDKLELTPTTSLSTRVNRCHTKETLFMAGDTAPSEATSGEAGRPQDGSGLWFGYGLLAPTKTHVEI

Substance-P receptor [1] = target: T2, Substance-P receptor (Homo sapiens, UniProt P25103); experiment: (§1) Inhibition of cloned human NK1 (Neurokinin 1) receptor, stably expressed in chinese hamster ovary (CHO) cells was determined
Substance-P receptor [2] = target: T2, Substance-P receptor; experiment: as §1; details: concentration not given here

T2 sequence (P25103 whole entry): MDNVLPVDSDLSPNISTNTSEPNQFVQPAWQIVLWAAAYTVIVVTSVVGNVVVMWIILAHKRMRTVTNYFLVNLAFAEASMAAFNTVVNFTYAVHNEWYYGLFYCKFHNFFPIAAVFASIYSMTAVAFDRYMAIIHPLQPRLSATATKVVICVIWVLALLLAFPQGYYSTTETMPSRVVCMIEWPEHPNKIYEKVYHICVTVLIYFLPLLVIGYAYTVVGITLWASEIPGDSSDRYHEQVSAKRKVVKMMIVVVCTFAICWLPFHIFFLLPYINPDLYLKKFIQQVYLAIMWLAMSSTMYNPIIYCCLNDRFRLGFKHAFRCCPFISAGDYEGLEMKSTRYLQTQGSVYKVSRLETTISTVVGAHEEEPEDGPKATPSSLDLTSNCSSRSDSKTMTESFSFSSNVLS

| SMILES | IC50 (Substance-K receptor) | IC50 (Substance-P receptor [1]) | inhibition (Substance-P receptor [2]) |
| --- | --- | --- | --- |
| O=C(NCCc1ccccc1)[C@H](Cc1c[nH]c2ccccc12)NC(=O)N1CCC2(CCc3ccccc32)CC1 | 0.211 µM | 0.332 µM | – |
| CCN(Cc1ccccc1)C(=O)[C@H](Cc1c[nH]c2ccccc12)NC(=O)N1CCC2(CCc3ccccc32)CC1 | 0.139 µM | 0.242 µM | – |
| Cc1cc(C)cc(CN(C)C(=O)[C@H](Cc2c[nH]c3ccccc23)NC(=O)c2ccccc2)c1 | > 5 µM | > 1.1 µM | – |
| CC(=O)N[C@@H](Cc1c[nH]c2ccccc12)C(=O)OCc1cc(C(F)(F)F)cc(C(F)(F)F)c1 [L-732138] | > 5 µM | – | – |
| CSN1CC2(CCN(C(=O)N[C@@H](Cc3c[nH]c4ccccc34)C(=O)N(C)Cc3cc(C)cc(C)c3)CC2)c2ccccc21 | 1.4 µM | 0.01 µM | – |
| CC(=O)NC1(c2ccccc2)CCN(C(=O)N[C@@H](Cc2c[nH]c3ccccc23)C(=O)N(C)Cc2ccccc2)CC1 | 0.928 µM | 0.077 µM | – |
| CSN1CC2(CCN(C(=O)N[C@H](Cc3c[nH]c4ccccc34)C(=O)N(C)Cc3ccccc3)CC2)c2ccccc21 | 0.577 µM | 0.164 µM | – |
| O=C(NCc1ccccc1)[C@H](Cc1c[nH]c2ccccc12)NC(=O)N1CCC2(CCc3ccccc32)CC1 | 0.014 µM | 0.227 µM | – |
| CNC(=O)N[C@@H](Cc1c[nH]c2ccccc12)C(=O)OCc1cc(C)cc(C)c1 | > 5 µM | – | – |
| CSN1CC2(CCN(C(=O)N[C@@H](Cc3c[nH]c4ccccc34)C(=O)OCc3cc(C(F)(F)F)cc(C(F)(F)F)c3)CC2)c2ccccc21 | > 1 µM | 0.00058 µM | – |
| CC(=O)NC1(c2ccccc2)CCN(CC[C@H](CN(C)C(=O)c2ccccc2)c2ccc(Cl)c(Cl)c2)CC1 [SAREDUTANT] | 0.00013 µM | 0.8 µM | – |
| CSN1CC2(CCN(C(=O)N[C@@H](Cc3c[nH]c4ccccc34)C(=O)N(C)Cc3ccccc3)CC2)c2ccccc21 | 0.024 µM | 0.014 µM | – |
| CSN1CC2(CCN(C(=O)N[C@@H](CCc3ccccc3)C(=O)N(C)Cc3ccccc3)CC2)c2ccccc21 | 0.166 µM | 1.1 µM | – |
| CN(Cc1ccccc1)C(=O)[C@H](Cc1c[nH]c2ccccc12)NC(=O)N1CCC2(CCc3ccccc32)CC1 | 0.027 µM | 0.056 µM | – |
| CSN1CC2(CCN(C(=O)N[C@@H](Cc3c[nH]c4ccccc34)C(=O)N(C)Cc3cc(C(F)(F)F)cc(C(F)(F)F)c3)CC2)c2ccccc21 | 4.2 µM | 0.001 µM | – |
| CSN1CC2(CCN(C(=O)N[C@@H](COCc3ccccc3)C(=O)N(C)Cc3ccccc3)CC2)c2ccccc21 | 0.258 µM | 0.48 µM | – |
| CSN1CC2(CCN(C(=O)N[C@@H](Cc3c[nH]c4ccccc34)C(=O)OCc3ccccc3)CC2)c2ccccc21 | 4.5 µM | 0.023 µM | – |
| O=C(Nc1ccccc1)[C@H](Cc1c[nH]c2ccccc12)NC(=O)N1CCC2(CCc3ccccc32)CC1 | 2.1 µM | – | 39% |
| CN(Cc1ccccc1)C(=O)[C@H](Cc1c[nH]c2ccccc12)NC(=O)N1CCC2(C=Cc3ccccc32)CC1 | 0.018 µM | 0.068 µM | – |
